Several values for one entry are separate records, joined by “and”; a condition that tells them apart may be missing. Equal values may be shown once.
How the values were obtained:
HeLa cells [1] = test: cell death-inducing activity; type: cell-based; conditions: 50 μM, 24 hours
Source text: (§1) Figure 1 Structures and characterization of KUSs, novel VCP modulators. (a) Structures and IC50 values of KUS11, KUS31, KUS69, KUS94, KUS121, and KUS187. […] (b) ATPase activity assays of recombinant human […], comparing KUSs and DBeQ. (c) Immunoblot analysis of ubiquitinated proteins, an ER stress marker (CHOP), and an autophagy indicator (LC3), comparing KUSs and DBeQ. As a control, MG132, a proteasome inhibitor, was used for the analysis. Actin served as a loading control. Complete scans of the different blots are presented in Supplementary Fig. 7. (d) Comparison of KUSs and DBeQ for cell death-inducing activities. HeLa cells were treated with 50 μM DBeQ or KUSs for 24 hours. […]

HeLa cells [2] = test: immunocytochemistry of laminin γ1 aggregation in tunicamycin-treated cells; type: cell-based; conditions: HeLa, Tm 0.5 μg/ml, 5 hours
Procedure: (§2) Figure 4 KUSs and ATP each prevented a decrease of ATP levels and ameliorated ER stress in tunicamycin-treated cells. (a) Immunocytochemical analyses of HeLa cells by an anti-laminin γ1 antibody. HeLa cells were treated with 0.5 μg/ml of tunicamycin (Tm) for 5 hours in the presence of KUSs (50 μM), ATP (0.1, 0.3, and 1 mM), methylpyruvate (MePyr) (3 and 10 mM), or vehicle alone (DMSO). Then, cells were fixed and subjected to immunocytochemical analyses. Normally growing HeLa cells were also analyzed (Control). Scale bar, 10 μm. (b) Measurements of the relative amounts of ATP per cell. HeLa cells were treated with tunicamycin (Tm, 0.5 μg/ml) for 24 hours in the presence of KUSs (50 μM) or ATP (0.1 and 1 mM), or vehicle alone (DMSO), and were harvested. Then, ATP amounts from 1.5 × 10^5 cells were measured. * P < 0.05, ** P < 0.01. Error bars indicate SD. (c) Western blot analyses on CHOP. HeLa cells were treated with 0.5 μg/ml of tunicamycin for 5 hours in the presence of KUSs (50 μM), ATP (0.1, 0.3, and 1 mM), methylpyruvate (MePyr) (3 and 10 mM), or vehicle alone (-). Then, cells were harvested and subjected to western blot analyses. Actin served as a loading control. Complete scans of the different blots are presented in Supplementary Fig. 9.

rd10 mice = test: rd10 mouse model of retinitis pigmentosa (SD-OCT, electroretinogram, histology, electron microscopy, western blot); type: in vivo; conditions: 21-day-old
Procedure: Starting 7 days after birth, KUS121 or KUS187 was administered daily (50 mg/kg) by intraperitoneal injection. […] To test the visual function of the mice, dark-adapted electroretinograms were recorded. The amplitude of the a-wave, which represents visual function of photoreceptors, was smaller in the control mice than in the KUS-treated mice (Supplementary Fig. 5b and c). The peak latency of the a-wave, which negatively correlates with visual function of photoreceptors, was delayed in the control mice as compared with the KUS-treated mice (Supplementary Fig. 5d). At age 25 days, the thinning of the outer nuclear layer (ONL) was clearly observed in the control mice (Fig. 5a). The outer nuclear layer and the junction line between the inner segment and outer segment (arrow heads in Fig. 5a), which is generally considered to be positively associated with visual function, were clearly detected in the KUS-treated but not in control mice. […] At age 29 days, the photoreceptor layer was barely detected in SD-OCT images, and electroretinogram records were almost flat in control mice. […]
Spectral-domain optical coherence tomography (SD-OCT) examinations using Multiline OCT (Heidelberg Engineering, Heidelberg, Germany) were performed[33] in rd10 mice at ages of 21, 25, 29, and 33days. Total retinal thickness (from inner limiting membrane to Bruch membrane) in rd10 mice was measured using volume scan images[33] within a circle 0.366 mm in diameter, the center of which was adjusted to the center of the optic nerve head. […]
Electroretinogram recording was performed to assess the visual function of rd10 mice at ages of 21, 25, 29, and 33 days. […] Electroretinograms were recorded using a gold loop corneal electrode with a light-emitting diode (Mayo Corp., Inazawa, Japan). […] The electroretinogram response signals were amplified, digitized at 10 kHz with a band-pass filter of 0.3 to 500 Hz, and analyzed (PowerLab 2/25; AD instruments, New South Wales, Australia). […]

[3] = test system: essentially all tested cultured cells; test: cellular toxicity on cultured cells; type: cell-based; conditions: up to 50 μM
recombinant VCP = recombinant VCP (Homo sapiens, UniProt P55072); test: ATPase activity of recombinant VCP in vitro (modified molybdate assay, [γ-32P]ATP); type: biochemical
Sequence of recombinant VCP (P55072 whole entry, species assumed): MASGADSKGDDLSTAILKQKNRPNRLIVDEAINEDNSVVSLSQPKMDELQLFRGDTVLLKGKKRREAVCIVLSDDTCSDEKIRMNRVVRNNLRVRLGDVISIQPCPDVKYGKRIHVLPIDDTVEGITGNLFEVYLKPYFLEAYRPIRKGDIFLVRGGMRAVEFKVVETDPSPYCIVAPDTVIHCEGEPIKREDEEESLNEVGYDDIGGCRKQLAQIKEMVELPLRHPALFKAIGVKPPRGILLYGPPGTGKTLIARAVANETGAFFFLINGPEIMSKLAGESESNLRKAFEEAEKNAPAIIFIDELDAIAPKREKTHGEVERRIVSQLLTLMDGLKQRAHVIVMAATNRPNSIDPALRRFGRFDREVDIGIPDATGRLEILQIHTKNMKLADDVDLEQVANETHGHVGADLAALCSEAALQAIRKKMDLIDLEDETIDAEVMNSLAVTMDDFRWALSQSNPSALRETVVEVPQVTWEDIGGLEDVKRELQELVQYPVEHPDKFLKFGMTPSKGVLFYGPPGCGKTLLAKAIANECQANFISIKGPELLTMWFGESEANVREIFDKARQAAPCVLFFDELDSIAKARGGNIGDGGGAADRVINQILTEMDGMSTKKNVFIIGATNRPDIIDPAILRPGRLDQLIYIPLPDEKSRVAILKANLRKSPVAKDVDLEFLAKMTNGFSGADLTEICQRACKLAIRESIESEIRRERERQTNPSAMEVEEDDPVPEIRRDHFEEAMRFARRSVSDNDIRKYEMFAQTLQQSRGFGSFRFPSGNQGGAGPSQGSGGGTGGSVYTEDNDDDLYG
Procedure: (§3) We measured ATPase activities by modifying the molybdate assay, which was as described previously. In the assay, 1 μg of whole cell soluble lysate of neuronally differentiated PC12 cells, or 500 ng recombinant VCP protein, was incubated in 20 μl of the ATPase assay buffer (20 mM HEPES (pH 7.4), 50 mM KCl, 5 mM MgCl2) with 100 μM [γ-^32P]ATP (18.5 GBq/mmol) (PerkinElmer) at 37°C for 20 min. After incubation, the reaction was quenched by addition of 200 μl of 8% ice-cold trichloroacetic acid solution with 1 mM K2HPO4, and then 50 μl of solution A (3.75% ammonium molybdate, 0.02 M silicotungstic acid in 3 N H2SO4) and 300 μl of n-butyl acetate were added to the reaction. The samples were mixed well and centrifuged at 12,000 × g for 1 min. Then, 200 μl aliquots from the upper organic phases were taken and their radioactivity was determined with a liquid scintillation counter for β-radiation, which determined the amounts of ^32P released.

[4] = test system: whole cell soluble lysate of neuronally differentiated PC12 cells; test: total ATPase activity in clarified whole cell lysates; type: biochemical
Procedure: Figure 3 Effects of KUSs on ATPase activities, ATP levels, and acetyl-CoA levels. (a) Inhibition of ATPase activity in clarified whole cell lysates by KUS121, KUS187, and KUS94, but not KUS11. Total ATPase activities in clarified whole cell lysates from differentiated PC12 cells were measured in the absence and presence of KUSs. Relative ATPase activities are shown with values in the absence of KUS (D: DMSO) set at 100%. (b) HeLa cells were cultured in medium with low glucose (0.25 g/l) for 20 hours, with or without KUSs, and ATP levels were measured with luciferase assays. (c) HeLa cells were cultured in medium with low glucose (0.25 g/l) for 20 hours, with or without KUSs, and acetyl-CoA levels were measured. * P < 0.05, ** P < 0.01, *** P < 0.001 vs. DMSO control (Dunnett's test, n = 3).
as §3

cellular VCP functions = test: immunoblot of ubiquitinated proteins, CHOP (ER stress) and LC3 (autophagy) in cultured cells; type: cell-based
Source text: as §1

HeLa cells [5] = test: relative ATP amounts per cell in tunicamycin-treated cells; type: cell-based; conditions: Tm 0.5 μg/ml, 24 hours, KUSs 50 μM
Procedure: as §2

[6] = test system: tunicamycin-treated HeLa cells; test: western blot of ER stress markers and phospho-Akt in tunicamycin-treated cells; type: cell-based; conditions: Tm 0.5 μg/ml, 5 hours, 3 to 10 mM methylpyruvate
Procedure: Figure 2 Prevention of cell death and ER stress by KUSs. (a) Photographs of HeLa cells, cultured with DMSO (DMSO) or KUSs (KUS94, KUS121, and KUS187, 20 μM each) for 41 hours in low glucose (0.2 g/l) medium. Scale bar, 100 μm. (b–e) WST (water-soluble tetrazolium salts) values reflecting relative live cell numbers are shown, as optical density (OD) at 450 nm. Error bars indicate SD. (b) WST values of HeLa cells, cultured in low glucose (0.2 g/l) with DMSO (control) or KUSs (50 μM for KUS121; 20 μM for KUS69, KUS94, and KUS187, n = 3) for 41 hours. (c) Cell viability, indicated by WST values of HeLa cells, cultured with tunicamycin (Tm) (0.2 μg/ml) for 41 hours with KUSs (20 μM each, n = 3). (d) WST values of HEK293 cells, cultured under serum-free conditions for 65 hours with DMSO (control) or KUSs (20 μM each, n = 3). *** P < 0.001, vs. DMSO control (Dunnett's test). (e) WST values of HeLa cells, cultured in low glucose (0.2 g/l) medium with different concentrations of KUS121 (5, 10, 20, and 50 μM, n = 3) for 41 hours. ** P = 0.008, *** P < 0.001, vs. DMSO control (Dunnett's test). […]
Figure 4 KUSs and ATP each prevented a decrease of ATP levels and ameliorated ER stress in tunicamycin-treated cells. […] Normally growing HeLa cells were also analyzed (Control). […] Then, ATP amounts from 1.5 × 10^5 cells were measured. * P < 0.05, ** P < 0.01. […]

With CCCCOc1c(C=O)cc(C)cc1-c1ccc(/N=N/c2cc(S(=O)(=O)O)c3ccccc3c2N)cn1 [KUS187] the “induction of cell death” value (HeLa cells [1]) was “did not induce any of these phenotypes”, the “aggregation of laminin γ1” value (HeLa cells [2]; 50 μM KUS) was “clearly prevented the aggregation of laminin γ1” and the “outer segment morphology by electron microscopy” value (rd10 mice) was “well preserved”. The “mean amplitude of the a-wave, dark-adapted electroretinogram” value (rd10 mice; 50 mg/kg daily i.p. from day 7, vs control) was “larger than that in control rd10 mice”, the apparent cellular toxicity [3] was “did not manifest any apparent cellular toxicity” and the IC50 (recombinant VCP) was 200 to 300 nM and 186 nM. For the same compound, the “lowering of total ATPase activity” value ([4]; 100 nM compound) was “approximately 20%”, the “lowering of total ATPase activity” value ([4]; 1 μM compound) was ~40% and the “induction of accumulation of ubiquitinated proteins, ER stress (CHOP), autophagy (LC3)” value (“induction of accumulation … (LC3)” below) (cellular VCP functions) was “did not induce any of these phenotypes”.

In the case of Nc1ccc2cc(S(=O)(=O)O)ccc2c1/N=N/c1ccccc1 [KUS11], the IC50 (recombinant VCP) is reported as > 100000 nM, the “inhibition of total ATPase activity in clarified lysates” value [4] is reported as “did not show any significant inhibition” and the “decrease of ATP levels in tunicamycin-treated cells” value (HeLa cells [5]) is reported as “unable to prevent the tunicamycin-elicited ATP decrease”.

For Nc1c(/N=N/c2ccc(-c3ccccc3-c3ccccc3)nc2)cc(S(=O)(=O)O)c2ccccc12 [KUS69], the “induction of cell death” value (HeLa cells [1]) was “did not induce any of these phenotypes”, the “aggregation of laminin γ1” value (HeLa cells [2]; 50 μM KUS) was “clearly prevented the aggregation of laminin γ1” and the apparent cellular toxicity [3] was “did not manifest any apparent cellular toxicity”. The IC50 (recombinant VCP) was 116 nM and the “induction of accumulation … (LC3)” value (cellular VCP functions) was “did not induce any of these phenotypes”.

With Nc1c(/N=N/c2ccc(-c3cccc4c3sc3ccccc34)nc2)cc(S(=O)(=O)O)c2ccccc12 [KUS94] the “induction of cell death” value (HeLa cells [1]) was “did not induce any of these phenotypes”, the “aggregation of laminin γ1” value (HeLa cells [2]; 50 μM KUS) was “clearly prevented the aggregation of laminin γ1” and the apparent cellular toxicity [3] was “did not manifest any apparent cellular toxicity”. For the same compound, the IC50 (recombinant VCP) was 1000 nM, the “lowering of total ATPase activity” value ([4]; 1 μM compound) was “approximately 20%” and the “induction of accumulation … (LC3)” value (cellular VCP functions) was “did not induce any of these phenotypes”.

Nc1c(/N=N/c2ccc(-c3ccccc3)nc2)cc(S(=O)(=O)O)c2ccccc12 [KUS31] was tested, and the “induction of cell death” value (HeLa cells [1]) was “did not induce any of these phenotypes”, the apparent cellular toxicity [3] was “did not manifest any apparent cellular toxicity” and the IC50 (recombinant VCP) was 229 nM. For the same compound, the “induction of accumulation … (LC3)” value (cellular VCP functions) was “did not induce any of these phenotypes”.

For COC(=O)C(C)=O [methylpyruvate], the “aggregation of laminin γ1” value (HeLa cells [2]; 3 to 10 mM methylpyruvate) was “ineffective in preventing the aggregation of laminin γ1” and the “induction of ER stress (CHOP induction)” value [6] was “dampen the induction of ER stress”.

Reference: publication PMC4122966, “Novel VCP modulators mitigate major pathologies of rd10, a mouse model of retinitis pigmentosa” (Scientific Reports, 2014)
